Test results from PubChem BioAssay (NCI).
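Tested at 5 concentrations; 48 h exposure; 96-well plates; endpoints linearly interpolated, else capped at highest concentration. The concentration for full growth arrest is given as TGI.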

What was measured:
Assay in all cases: inhibition of tumour cell growth, NCI panel, 48 h
EKVX NSCLC = tested on: EKVX NSCLC
IGROV1 ovarian = tested on: IGROV1 ovarian
M14 melanoma = tested on: M14 melanoma
MALME-3M melanoma = tested on: MALME-3M melanoma
OVCAR-5 ovarian = tested on: OVCAR-5 ovarian
OVCAR-8 ovarian = tested on: OVCAR-8 ovarian
RPMI-8226 leukemia = tested on: RPMI-8226 leukemia
SK-MEL-2 melanoma = tested on: SK-MEL-2 melanoma
SNB-19 CNS = tested on: SNB-19 CNS
PC-3 prostate = tested on: PC-3 prostate

| Structure (SMILES) | TGI (EKVX NSCLC) [µM] | TGI (IGROV1 ovarian) [µM] | TGI (M14 melanoma) [µM] | TGI (MALME-3M melanoma) [µM] | TGI (OVCAR-5 ovarian) [µM] | TGI (OVCAR-8 ovarian) [µM] | TGI (RPMI-8226 leukemia) [µM] | TGI (SK-MEL-2 melanoma) [µM] | TGI (SNB-19 CNS) [µM] | TGI (PC-3 prostate) [µM] |
| --- | --- | --- | --- | --- | --- | --- | --- | --- | --- | --- |
| Clc1ccc(SC(/C=C/NNC2=NC(c3ccccc3)C(c3ccccc3)=NN2)c2ccccc2)cc1 (configuration not stated) | > 100 | > 100 | 46 | 39.8 | > 100 | > 100 | 30.3 | 40.7 | > 100 |  |
| COC(=O)CCC(=O)NC1=C(NCc2ccccc2)C(=O)c2ccccc2C1=O | > 100 | 53.7 | > 100 |  | 98.7 | > 100 | > 100 | 67.1 | > 100 | > 100 |
| O=C(c1ccc(Cl)cc1)c1ccc(OCCCOc2ccc(C(=O)c3ccc(Cl)cc3)cc2)cc1 | > 100 | > 100 | > 100 | > 100 | > 100 | > 100 | > 100 | > 100 | > 100 |  |
| O=c1[nH]c(=O)n(C2OC(COP(=O)(O)OP(=O)(O)OC3OC(CO)C(O)C(O)C3O)C(O)C2O)cc1F (configuration not stated) | > 100 | 6.26 | > 50.1 | 20.9 | 5.33 | > 100 |  | > 91.3 | > 100 |  |
| Cc1nc(Nc2ccc(Cl)cc2)sc1C(=O)NNc1ccc([N+](=O)[O-])cc1[N+](=O)[O-] | 32.6 | 46.6 | 45.3 | 36.2 | 30.7 | 46.5 | 51.8 | 32.7 | 30.4 |  |
| CN(C)c1ccc(C(=C(c2ccc(N(C)C)cc2)c2ccc(N(C)C)cc2)c2ccc(N(C)C)cc2)cc1 | 34.4 | 34 | 22 | 32.6 | > 100 | 44.7 | 47.6 | 28.5 | 29.4 |  |
| O=[N+]([O-])C1CC/C(=N/O)c2nonc21 (configuration not stated) | > 10 | > 10 | > 10 | > 10 | > 10 | > 10 | > 10 |  | > 10 | > 10 |
| O=C1Nc2ccccc2C12CCNC2Cc1ccccc1 (configuration not stated) | > 100 | > 100 | > 100 | > 100 | > 100 | > 100 | > 100 | > 100 | > 100 |  |
| BrCCCCCOc1ccc(-c2c3ccccc3c(-c3ccc(OCCCCCBr)cc3)c3ccccc23)cc1 | > 100 | > 100 | > 100 |  | > 100 | > 100 | > 100 | > 100 | > 100 | > 100 |
| CCOC(=O)c1cc(-c2cc(OC)c(OC)c([N+](=O)[O-])c2)c([N+](=O)[O-])n1C | > 10 | > 10 | > 10 | > 10 | > 10 | > 10 |  | > 10 | > 10 |  |
| CCOC(=O)c1ccc(Nc2c3c(nc4ccccc24)CCCC3)cc1 | > 100 | > 100 | > 100 |  | > 100 | > 100 | > 100 | > 100 | > 100 | > 100 |
